Results on seven molecules are retold here after ChEMBL document CHEMBL1649399, “Identification of a reduction product of aristolochic acid: implications for the metabolic activation of carcinogenic aristolochic acid” (J Nat Prod, 2010).

Each structure is given as a SMILES string. Calls of active or inactive are those of the source. The rule behind the calls is not given here.

This assay concerns Nucleic Acid. Nature of the assay: Binding affinity to DNA assessed as DNA adduct formation. Type of assay: nucleic-acid assay.
For the molecule `COc1cccc2c1c(Nc1nc3c(ncn3[C@H]3C[C@H](O)[C@@H](CO)O3)c(=O)[nH]1)c1c3c(cc4c(c32)OCO4)C(=O)N1`, the result was Active.

Consider `COc1cccc2c1c(/N=c1\[nH]cnc3c1ncn3[C@H]1C[C@H](O)[C@@H](CO)O1)c1c3c(cc4c(c32)OCO4)C(=O)N1`, for which the result was Active. Regarding `CC(=O)Nc1ccc2c(c1)Cc1ccccc1-2`, the result was Active. With `O=C1Nc2cc3ccccc3c3c4c(cc1c23)OCO4` the entry was “Active”; with `O=C1Nc2c(/N=c3\[nH]cnc4c3ncn4[C@H]3C[C@H](O)[C@@H](CO)O3)c3ccccc3c3c4c(cc1c23)OCO4`, “Active”. With `O=C1Nc2c(Nc3nc4c(ncn4[C@H]4C[C@H](O)[C@@H](CO)O4)c(=O)[nH]3)c3ccccc3c3c4c(cc1c23)OCO4` the entry was “Active”; with `COc1cccc2c1cc1c3c(cc4c(c32)OCO4)C(=O)N1`, “Active”.
